Here are results for 10 compounds from US20230293699A1, “USE OF A BORON CLUSTER AS TRANSMEMBRANE CARRIER” (CONSTRUCTOR UNIVERSITY BREMEN GGMBH, priority 2020, published 2023).

Data set [1] is described as follows: HPTS/DPX vesicle transport assay. The format is biochemical. Particulars: for transport of heptaarginine across the lipid membrane of the vesicles: cargo heptaarginine (H-Trp-Arg7-OH), HPTS fluorescence increase; for transport of positive, zwitterionic and neutral cargo into vesicles: cargo: singly charged, neutral biomolecules, vitamins, antibiotics, neuromuscular blocking agents, proteins. The text has this:
A: Heptaarginine, B: Heptalysine, C: Protamine, D: Acethylcholine, E: Pancuronium, F: Vecuronium, G: Vitamin B1, H: Ranitidin, I: Tryptophan, J: Ampicilin, K: Phenylalanine, L: Phalloidin, M: Glutamic acid, and N: Bovine albumin. +: positively charged cargos, +/−: zwitterionic cargos, ©: neutral cargo, and −: negatively charged cargos;
A hydrophilic heptaarginine peptide (H-Trp-Arg7-OH) which is unable to spontaneously translocate across neutral phosphocholine lipid vesicles in the absence of counterion activators was used as prototype for cationic cell-penetrating molecular scaffolds (peptides and polymers). The capability of boron clusters to activate the transport of the heptaarginine peptide (H-Trp-Arg7-OH) was investigated first in large unilamellar vesicles (LUVs). The HPTS/DPX assay, that uses 8-hydroxypyrene-1,3,6-trisulfonate and p-xylene-bis-pyridinium, was implemented to monitor peptide-transport activation by the clusters. This assay not only reports on the potential of a synthetic carrier to transport the positively charged peptide into a vesicle, but also to shuttle the cationic quencher DPX to the outside.
Transport can accordingly be monitored, and the activator efficacy quantified, by a time-resolved fluorescence increase at different concentrations of the carrier.
HTPS emission was monitored during the sequential addition of the globular cluster carrier and peptide cargo; a strong detergent (Triton® X-100) was added at the end to affect vesicle lysis and complete dye release that allowed a normalization of the fluorescence intensity data.
This was validated in vesicle transport experiments, which included targets which have not been previously accessible to other non-covalent synthetic carriers or counterion activators. The targets included singly charged, zwitterionic, and neutral biomolecules (such as acetylcholine and amino acids), vitamins, antibiotics, neuromuscular blocking agents and proteins.

In the next data set the test system is HeLa cells. Briefly: Tm-Arg8 endosomal escape by confocal fluorescence microscopy. The format is cell-based. As for the experimental part: Cells were incubated with 1 μM Tm-Arg8 and 0 (left picture) or 10 μM clusters diluted in HKR buffer for 1 hour, washed twice with HKR buffer, and imaged by confocal fluorescence microscopy; Images show TAMRA fluorescence (light gray) and the brightfield in the inset pictures; scale bars: 50 μm;
The potential of boron clusters to trigger the endosomal escape into live cells was first studied for oligocationic peptides as cargo. As a prototype, the octaarginine peptide labelled with carboxytetramethylrhodamine (Tm-Arg8) was selected, which at low concentrations (i.e., 1 μM) enters cells by endocytosis and remains trapped in the intracellular compartments. The cytosolic delivery of Tm-Arg8 was followed by confocal microscopy in the presence and absence of superchaotropic boron clusters (FIG. 4).

Data set [2] concerns Escherichia coli Top10 strain. Briefly: E. coli Top10 viability with kanamycin A and B1. The format is cell-based. As for the experimental part:
Bar graphs (left) and time course (right) of E. coli Top10 viability in the presence of different concentrations of kanamycin monosulfate (0, 2500, 3000 or 3500 nM) and B1 (0, 500, 750 or 1000 μM) in LB broth at 37° C.; error bars (shown on the right) refer to the standard deviation (n=3; V (%): E. coli Top10 viability, [KA] […]
For kanamycin A, effective passage through the cell membrane into the cytosol is essential to reach its intracellular targets. […] In the absence of the cluster, E. coli retained viability (60%), which disappeared almost completely (<5%) in the presence of the antibiotics carrier (FIG. 5). The enhanced antibiotic activity is attributed to the boron cluster's carrier potential as all other factors were left the same.

The nature of data set [3]: Transport of a bioactive molecule through a membrane by fused, multinuclear and iodinated clusters. From the text: Also fused boron clusters and multinuclear boron clusters were successfully used as transporters for a bioactive molecule through a membrane.
The next data set addresses T1, Cereblon E3 Ligase (Homo sapiens, UniProt Q96SW2).
T1 construct: expressed in transfected cells
Put plainly: NanoBRET TE Intracellular E3 Ligase Assay (CRBN target engagement). The class given is cell-based. Particulars: dBET1 in presence vs absence of B1 (0, 25, 50 μM). How it is done:
Crossbars and error bars indicate mean and standard deviation; values obtained in each experimental value are represented with a different shape;
For dBET1, a PROTAC with known low permeability, it was shown that B1 enhances its activity. The internalization of this PROTAC in the absence and presence of the cluster was assessed by its ability to bind to the Cereblon E3 Ligase by using a NanoBRET™ TE Intracellular E3 Ligase Assay. Enhanced uptake of dBET1 was observed (factor 2-3 decrease in IC50 value).

The test system of another data set is mammalian cell. Put plainly: Mammalian cell survival. The class given is cell-based. Particulars: 500 μM.

T1 sequence (Q96SW2 whole entry): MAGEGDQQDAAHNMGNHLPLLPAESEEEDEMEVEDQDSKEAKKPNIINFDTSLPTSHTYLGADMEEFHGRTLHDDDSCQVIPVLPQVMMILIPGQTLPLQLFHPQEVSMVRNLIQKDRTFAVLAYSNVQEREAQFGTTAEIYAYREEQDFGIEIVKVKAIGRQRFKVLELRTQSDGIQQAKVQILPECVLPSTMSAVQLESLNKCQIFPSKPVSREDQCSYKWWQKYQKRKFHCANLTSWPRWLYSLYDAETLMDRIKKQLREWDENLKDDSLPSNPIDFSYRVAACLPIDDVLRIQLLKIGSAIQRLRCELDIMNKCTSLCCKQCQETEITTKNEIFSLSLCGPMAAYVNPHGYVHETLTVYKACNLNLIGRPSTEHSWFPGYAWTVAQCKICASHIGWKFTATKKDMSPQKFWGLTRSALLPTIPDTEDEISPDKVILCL

In the case of B12H11NBD^− [B3], in data set [1], the “transport of heptaarginine across the lipid membrane of the vesicles” value was “efficient transport”. Moreover, in the data set on HeLa cells (1 μM Tm-Arg8, 10 μM cluster, HKR buffer, 1 hour), the “Tm-Arg8 peptide endosomal escape (diffuse cytosolic fluorescence)” value is “excellent peptide endosomal escape”. Moreover, in the data set with HeLa cells (fluorescent cluster with Tm-Arg8), the “peptide and cluster colocalization” value was “significant peptide and cluster colocalization”.

Consider `NC[C@H]1O[C@H](O[C@H]2[C@H](O)[C@@H](O[C@H]3O[C@H](CO)[C@@H](O)[C@H](N)[C@H]3O)[C@H](N)C[C@@H]2N)[C@H](O)[C@@H](O)[C@@H]1O` [kanamycin A], for which the viability at 3.5 µg/mL in data set [2] (Escherichia coli, TOP10STRAIN, read-out: E. coli viability) stood at 60%. Moreover, the “antibiotic effectiveness in bacteria” value in data set [2] (antibiotic transported by boron cluster) is listed as “increased its effectiveness”.

For 8,8′-I2-(1,2-C2B9H10)2-3,3′-Co^− [CS6], the “use as transporter / active cluster for a bioactive molecule through a membrane” value (from here on “use as transporter / active cluster”) in data set [3] is reported as “successfully used as active clusters”.

As to (1,2-C2B9HO2-3,3′-Co^− [CS1], the “use as transporter / active cluster” value in data set [3] is “successfully used as active clusters”.

Take B12Br11—O-n-C3H7^2− [B2]: the “transport of heptaarginine across the lipid membrane of the vesicles” value in data set [1] was “little influence”.

“(8-I-1,2-C2B9H10)-(1′2′-C2B9H11)-3,3′-Co^− [CS4]”: in data set [3], the “use as transporter / active cluster” value was “successfully used as active clusters”.

As to B10Br10^2− [B4], the “transport of positive, zwitterionic and neutral cargo into vesicles” value in data set [1] is reported as “same trends were reproduced in transport efficiency”.

For B12Br12^2−, the “transport of negatively charged cargo into vesicles” value in data set [1] (cargo glutamate and albumin) was “with the exception of the negatively charged molecules (glutamate and albumin)”. Besides, in data set [1], the “transport of positive, zwitterionic and neutral cargo into vesicles” value is “transported all types of cargo (positive and neutral)”. Besides, the E. coli viability in data set [2] (kanamycin A 3.5 μg/ml in the presence of B1 500 μM) is under 5%. The “decrease in IC50 value of dBET1” value on Cereblon E3 Ligase was 2-3 factor. Also, the “compatibility with mammalian cell survival” value with mammalian cell is given as “compatible with mammalian cell survival”.

Take (1,7-C2B9H11)2-2,2′-Co^− [CS2]: the “use as transporter / active cluster” value in data set [3] is given as “successfully used as active clusters”.

On to pyrene butyrate [reference compound], for which the “fluorescence response (transport) of zwitterionic or neutral analytes” value in data set [1] (analytes acetylcholine, tryptophan, ampicillin, vecuronium and phalloidin, comparison activator) is “None of the selected, zwitterionic or neutral, analytes (acetylcholine, tryptophan, ampicillin, vecuronium and phalloidin) showed any fluorescence response”.
